Consider 27 molecules from patent US20130345419A1, “AZOLE DERIVATIVE” (TAISHO PHARMACEUTICAL CO., LTD., priority 2011, published 2013).

One may read the IC50 as the concentration needed to halve the response being measured.

The target of the first experiment is T1, human recombinant FKBP12 (Homo sapiens, UniProt P62942).
T1 construct: purchased Sigma F-5398
T1 sequence (P62942 whole entry): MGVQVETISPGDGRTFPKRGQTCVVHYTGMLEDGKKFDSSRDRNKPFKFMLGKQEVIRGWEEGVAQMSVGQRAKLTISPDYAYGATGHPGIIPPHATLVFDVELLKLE
As to the kind of experiment: Test 1: immunophilin FKBP12 rotamase (peptidylprolyl isomerase) inhibiting activity. The class given is biochemical. The note with it: 12 nM human recombinant FKBP12, substrate succinyl-Ala-Phe-Pro-Phe-paranitroanilide 48 μM, 4° C.; read-out: PKBP12 rotamase inhibiting activity IC50. The method, then:
(Test 1) Test for Measuring Immunophilin FKBP12 Rotamase Activity
The rotamase (peptidylprolyl isomerase) inhibiting activity of each test compound was measured by a known method (Harding et al., Nature 341, 758-760, 1989; Holts et al., J. Am. Chem. Soc. 115, 9925-9938, 1993.) To be more specific, a plastic cuvette was charged with 35 mM HEPES (pH 7.8), 12 nM human recombinant FKBP12 (Sigma, F-5398), 0.4 mg/mL α-chymotrypsin, and a test compound dissolved in DMSO at varying concentrations (DMSO's final concentration was 0.1%.) Subsequently, 24 mM of the substrate peptide, succinyl-Ala-Phe-Pro-Phe-paranitroanilide, as dissolved in trifluoroethanol containing 500 mM of LiCl was added to give a final concentration of 48 μM, whereupon reaction started. The reaction was carried out at 4° C. and the change in absorbance at 390 nm accompanying the liberation of the paranitroaniline product was monitored. A calculated initial rate minus the corresponding value in the absence of the enzyme was used as an index of rotamase activity. The rotamase inhibiting activity of a test compound was expressed in relative values (%) with respect to the control value of rotamase activity in the absence of the compound, and the concentration of the compound at which it was capable of inhibiting rotamase activity by 50% was calculated as an IC50 value from its concentration response curve.
`CC1(C)CC(C)(C)CC(O)(C(F)(F)C(=O)N2CCC[C@H]2c2cc(COc3cncnc3)on2)C1` [Compound 59]: the IC50 was determined as 124 nM.

`CC1(C)CC(C)(C)CC(O)(C(F)(F)C(=O)N2CCC[C@H]2c2cc(Cn3ccc(=O)nc3)on2)C1` [Compound 61, (S)-1-((3-(1-(2,2-Difluoro-2-(1-hydroxy-3,3,5,5-tetramethylcyclohexyl)acetyl)pyrrolidin-2-yl)isoxazol-5-yl)methyl)pyrimidin-4(1H)-one]: the IC50 amounted to 152 nM.

Take `CC1(C)CC(C)(C)CC(O)(C(F)(F)C(=O)N2CCC[C@H]2c2cc(COc3ccncn3)on2)C1` [Compound 63, (S)-2,2-Difluoro-2-(1-hydroxy-3,3,5,5-tetramethylcyclohexyl)-1-(2-(5-((pyrimidin-4-yloxy)methyl)isoxazol-3-yl)pyrrolidin-1-yl)ethanone]: the 50% inhibitory concentration (IC50) came to 185 nM.

Consider `CC1(C)CC(C)(C)CC(O)(C(F)(F)C(=O)N2CCC[C@H]2c2cc(COc3cccc(F)c3)on2)C1` [Compound 64, (S)-2,2-Difluoro-1-(2-(5-((3-fluorophenoxy)methyl)isoxazol-3-yl)pyrrolidin-1-yl)-2-(1-hydroxy-3,3,5,5-tetramethylcyclohexyl)ethanone], for which the IC50 stood at 182 nM.

Take `COc1ccc(OCc2nnc([C@@H]3CCCN3C(=O)C(F)(F)C3(O)CC(C)(C)CC(C)(C)C3)o2)cc1OC` [Compound 2, (S)-1-(2-(5-((3,4-Dimethoxyphenoxy)methyl)-1,3,4-oxadiazol-2-yl)pyrrolidin-1-yl)-2,2-difluoro-2-(1-hydroxy-3,3,5,5-tetramethylcyclohexyl)ethanone]: the 50% inhibitory concentration (IC50) was found to be 62 nM.

On to `Cc1nnc([C@@H]2CCCN2C(=O)C(F)(F)C2(O)CC(C)(C)CC(C)(C)C2)o1` [Compound 27], for which the IC50 fell in the range of 500 to 1000 nM.

In the case of `COc1ccc(OCc2nnc([C@@H]3CCCN3C(=O)C(F)(F)C3(O)CC(C)(C)CC(C)(C)C3)o2)c(OC)c1` [Compound 30], the IC50 was found to be 220 nM.

Regarding `CC1(C)CC(C)(C)CC(O)(C(F)(F)C(=O)N2CCC[C@H]2c2nnc(Cc3cccnc3)o2)C1` [Compound 34], the IC50 lay within 500 to 1000 nM.

In the case of `CC1(C)CC(C)(C)CC(O)(C(F)(F)C(=O)N2CCC[C@H]2c2cc(CO)on2)C1` [Compound 18, (S)-2,2-Difluoro-2-(1-hydroxy-3,3,5,5-tetramethylcyclohexyl)-1-(2-(5-(hydroxymethyl)isoxazol-3-yl)pyrrolidin-1-yl)ethanone], the IC50 was 500 to 1000 nM.

For `CC1(C)CC(C)(C)CC(O)(C(F)(F)C(=O)N2CCC[C@H]2c2nnc(CNC(=O)c3ccccc3)o2)C1` [Compound 38, (S)—N-((5-(1-(2,2-Difluoro-2-(1-hydroxy-3,3,5,5-tetramethylcyclohexyl)acetyl)pyrrolidin-2-yl)-1,3,4-oxadiazol-2-yl)methyl)benzamide], the IC50 is 500 to 1000 nM.

Regarding `CC1(C)CC(C)(C)CC(O)(C(F)(F)C(=O)N2CCC[C@H]2c2cc(COc3ccccn3)on2)C1` [Compound 54, (S)-2,2-Difluoro-2-(1-hydroxy-3,3,5,5-tetramethylcyclohexyl)-1-(2-(5-((pyridin-2-yloxy)methyl)isoxazol-3-yl)pyrrolidin-1-yl)ethanone], the IC50 was 290 nM.

Consider `CC1(C)CC(C)(C)CC(O)(C(F)(F)C(=O)N2CCC[C@H]2c2cc(CN)on2)C1` [Compound 42, (S)-1-(2-(5-(Aminomethyl)isoxazol-3-yl)pyrrolidin-1-yl)-2,2-difluoro-2-(1-hydroxy-3,3,5,5-tetramethylcyclohexyl)ethanone], for which the IC50 was determined as 447 nM.

Take `COc1ccccc1OCc1nnc([C@@H]2CCCN2C(=O)C(F)(F)C2(O)CC(C)(C)CC(C)(C)C2)o1` [Compound 25]: the concentration for half-maximal inhibition (IC50) is 401 nM.

On to `COc1ccc(CCCc2nnc([C@@H]3CCCN3C(=O)C(F)(F)C3(O)CC(C)(C)CC(C)(C)C3)o2)cc1OC` [Compound 14], for which the IC50 lay within 500 to 1000 nM.

Regarding `COc1cccc(OCc2nnc([C@@H]3CCCN3C(=O)C(F)(F)C3(O)CC(C)(C)CC(C)(C)C3)o2)c1` [Compound 26], the half-maximal inhibitory concentration (IC50) fell in the range of 500 to 1000 nM.

Consider `COc1ccc(OCc2cc([C@@H]3CCCN3C(=O)C(F)(F)C3(O)CC(C)(C)CC(C)(C)C3)n[nH]2)cc1OC` [Compound 11, (S)-1-(2-(5-((3,4-Dimethoxyphenoxy)methyl)-1H-pyrazol-3-yl)pyrrolidin-1-yl)-2,2-difluoro-2-(1-hydroxy-3,3,5,5-tetramethylcyclohexyl)ethanone], for which the IC50 was determined as 235 nM.

Regarding `CC1(C)CC(C)(C)CC(O)(C(F)(F)C(=O)N2CCC[C@H]2c2nnc(COS(C)(=O)=O)o2)C1` [Compound 23, (S)-(5-(1-(2,2-Difluoro-2-(1-hydroxy-3,3,5,5-tetramethylcyclohexyl)acetyl)pyrrolidin-2-yl)-1,3,4-oxadiazol-2-yl)methyl methanesulfonate], the concentration for half-maximal inhibition (IC50) was in the range of 1000 to 2000 nM.

Regarding `COc1ccc(C(=O)NCc2cc([C@@H]3CCCN3C(=O)C(F)(F)C3(O)CC(C)(C)CC(C)(C)C3)no2)cc1OC` [Compound 50], the half-maximal inhibitory concentration (IC50) worked out at 117 nM.

As to `CN(C)Cc1nnc([C@@H]2CCCN2C(=O)C(F)(F)C2(O)CC(C)(C)CC(C)(C)C2)o1` [Compound 39, (S)-1-(2-(5-((Dimethylamino)methyl)-1,3,4-oxadiazol-2-yl)pyrrolidin-1-yl)-2,2-difluoro-2-(1-hydroxy-3,3,5,5-tetramethylcyclohexyl)ethanone], the 50% inhibitory concentration (IC50) lay within 500 to 1000 nM.

For the molecule `CC1(C)CC(C)(C)CC(O)(C(F)(F)C(=O)N2CCC[C@H]2c2nnc(COc3ccc(CO)cc3)o2)C1` [Compound 19], the IC50 turned out to be 229 nM.

On to `COc1ccc(OCc2cc([C@@H]3CCCN3C(=O)C(F)(F)C3(O)CC(C)(C)CC(C)(C)C3)on2)cc1OC` [Compound 10, (S)-1-(2-(3-((3,4-Dimethoxyphenoxy)methyl)isoxazol-5-yl)pyrrolidin-1-yl)-2,2-difluoro-2-(1-hydroxy-3,3,5,5-tetramethylcyclohexyl)ethanone], for which the IC50 was in the range of 500 to 1000 nM.

For the molecule `COc1ccc(OCc2noc([C@@H]3CCCN3C(=O)C(F)(F)C3(O)CC(C)(C)CC(C)(C)C3)n2)cc1OC` [Compound 3, (S)-1-(2-(3-((3,4-Dimethoxyphenoxy)methyl)-1,2,4-oxadiazol-5-yl)pyrrolidin-1-yl)-2,2-difluoro-2-(1-hydroxy-3,3,5,5-tetramethylcyclohexyl)ethanone], the IC50 was 500 to 1000 nM.

With `CC1(C)CC(C)(C)CC(O)(C(F)(F)C(=O)N2CCC[C@H]2c2nnc(CO)o2)C1` [Compound 22, (S)-2,2-Difluoro-2-(1-hydroxy-3,3,5,5-tetramethylcyclohexyl)-1-(2-(5-(hydroxymethy)-1,3,4-oxadiazol-2-yl)pyrrolidin-1-yl)ethanone], the IC50 was in the range of 1000 to 2000 nM.

Consider `CC1(C)CC(C)(C)CC(O)(C(F)(F)C(=O)N2CCC[C@H]2c2cc(Cn3ccccc3=O)on2)C1` [Compound 60, (S)-1-((3-(1-(2,2-Difluoro-2-(1-hydroxy-3,3,5,5-tetramethylcyclohexyl)acetyl)pyrrolidin-2-yl)isoxazol-5-yl)methyl)pyridin-2(1H)-one], for which the IC50 worked out at 376 nM.

On to `CC1(C)CC(C)(C)CC(O)(C(F)(F)C(=O)N2CCC[C@H]2c2cc(COc3ncccn3)on2)C1` [Compound 58, (S)-2,2-Difluoro-2-(1-hydroxy-3,3,5,5-tetramethylcyclohexyl)-1-(2-(5-((pyrimidin-2-yloxy)methyl)isoxazol-3-yl)pyrrolidin-1-yl)ethanone], for which the IC50 was 250 nM.

For the molecule `COc1ccc(OCc2nc([C@@H]3CCCN3C(=O)C(F)(F)C3(O)CC(C)(C)CC(C)(C)C3)n[nH]2)cc1OC` [Compound 5, (S)-1-(2-(5-((3,4-Dimethoxyphenoxy)methyl)-4H-1,2,4-triazol-3-yl)pyrrolidin-1-yl)-2,2-difluoro-2-(1-hydroxy-3,3,5,5-tetramethylcyclohexyl)ethanone], the IC50 came out at 119 nM.

Another experiment has as its system proliferating cell nuclear antigen (PCNA). As to the kind of experiment: Test 6: anagen induction stimulating effect in shaven mouse model, skin PCNA by ELISA. The note with it: 5% (w/v) in 80% ethanol, 200 μL once daily for 2 days, skin sampled about 4 hours after second administration, C57BL mice. It counts as in vivo. As to the method:
(Test 6) Test for Measuring Anagen Induction Stimulating Effect in Shave Mouse Model
The anagen induction stimulating effect of a compound was measured by the following method with the quantity of skin PCNA being used as an index.
C57BL mice (female, ca. 7-wk old) were shaven on the back and a base (80% ethanol) or a solution prepared by dissolving 5% (w/v) of Compound 40, 52, 59, 61, 63, 64 or 66 in this base was administered by applying them to the shaven area in 200-μL portions once daily for 2 days starting 3 days after the shaving (each group consisting of 5 heads.) About 4 hours after the administration on the second day, the skin at the application site was sampled and homogenized in a buffer containing 50 mM Tris-HCl (pH 7.6), 150 mM NaCl, 1% NP-40, and a protease inhibitor. By a centrifugal separation procedure, a PCNA containing protein solution was prepared and the quantity of PCNA in the solution was measured with a PCNA-ELISA kit of Calbiochem, Inc.
For `CC1(C)CC(C)(C)CC(O)(C(F)(F)C(=O)N2CCC[C@H]2c2cc(COc3cncnc3)on2)C1` [Compound 59], the “quantity of skin PCNA versus base administered group” value is on record as “increases in the quantity of skin PCNA”.

Turning to `CC1(C)CC(C)(C)CC(O)(C(F)(F)C(=O)N2CCC[C@H]2c2cc(Cn3ccc(=O)nc3)on2)C1` [Compound 61, (S)-1-((3-(1-(2,2-Difluoro-2-(1-hydroxy-3,3,5,5-tetramethylcyclohexyl)acetyl)pyrrolidin-2-yl)isoxazol-5-yl)methyl)pyrimidin-4(1H)-one], the “quantity of skin PCNA versus base administered group” value is listed as “increases in the quantity of skin PCNA”.

On to `CC1(C)CC(C)(C)CC(O)(C(F)(F)C(=O)N2CCC[C@H]2c2cc(COc3ccncn3)on2)C1` [Compound 63, (S)-2,2-Difluoro-2-(1-hydroxy-3,3,5,5-tetramethylcyclohexyl)-1-(2-(5-((pyrimidin-4-yloxy)methyl)isoxazol-3-yl)pyrrolidin-1-yl)ethanone], for which the “quantity of skin PCNA versus base administered group” value is on record as “increases in the quantity of skin PCNA”.

On to `CC1(C)CC(C)(C)CC(O)(C(F)(F)C(=O)N2CCC[C@H]2c2cc(COc3cccc(F)c3)on2)C1` [Compound 64, (S)-2,2-Difluoro-1-(2-(5-((3-fluorophenoxy)methyl)isoxazol-3-yl)pyrrolidin-1-yl)-2-(1-hydroxy-3,3,5,5-tetramethylcyclohexyl)ethanone], for which the “quantity of skin PCNA versus base administered group” value was “increases in the quantity of skin PCNA”.

As to `CC1(C)CC(C)(C)CC(O)(C(F)(F)C(=O)N2CCC[C@H]2c2cc(Cn3ccc(=O)cc3)on2)C1` [Compound 66, (S)-1-((3-(1-(2,2-Difluoro-2-(1-hydroxy-3,3,5,5-tetramethylcyclohexyl)acetyl)pyrrolidin-2-yl)isoxazol-5-yl)methyl)pyridin-4(1H)-one], the “skin PCNA levels relative to base administered group” value is “approximately 1.4 times”.
